The values that follow are results of earlier work, collected in patent publication EP2151445B1, “Process for the preparation of bidentate Schiff base ruthenium catalysts containing a salicylaldimine-type ligand” (Rimtec Corporation, priority 2008, dated 2010).

For this data set the following is noted: in water.

As for `O=C([O-])[O-].[Cu+2]` [CuCO3], the pKb result is given as “about 3.69”.

On to `O=C([O-])[O-].[K+].[K+]` [K2CO3], for which the pKb result was “about 3.69”.

In the case of `O=C([O-])[O-].[Li+].[Li+]` [Li2CO3], the pKb entry is “about 3.69”.

As for `O=C([O-])[O-].[Na+].[Na+]` [Na2CO3], the pKb result is reported as “about 3.69”.
